Experimental findings from US9926602B2, “Recurrent gene fusions in prostate cancer” (THE REGENTS OF THE UNIVERSITY OF MICHIGAN, priority 2009, dated 2018) are described below.

Structures are written as SMILES.

In this test the test system is UBE2L3-KRAS fusion protein. Briefly: Western blot of UBE2L3-KRAS fusion protein with or without bortezomib. It is filed as cell-based, human. The procedure:
The prostate cancer cell lines DU145 were transfected with siRNA duplex (Dharmacon, Lafayette, Colo., USA) against UBE2L3 (5′-CCACCGAAGATCACATTTA-3′; SEQ ID NO:1), KRAS (5′-GAAGTTATGGAATTCCTTT-3′; SEQ ID NO:2) or the fusion junction (5′-CCGACCAAGGCCTGCTGAA-3′; SEQ ID NO:3) by oligofectamine (Invitrogen). DU145 transfected with non-targeting siRNA and RWPE cells was used as negative control. Post 48 hours transfection, cells were homogenized in NP40 lysis buffer (50 mM Tris-HCl, 1% NP40, pH 7.4, Sigma, St. Louis, Mo.), and complete proteinase inhibitor mixture (Roche, Indianapolis, Ind.). Ten micrograms of each protein extract were boiled in sample buffer, separated by SDS-PAGE, and transferred onto Polyvinylidene Difluoride membrane (GE Healthcare, Piscataway, N.J.). The membrane was incubated for one hour in blocking buffer [Tris-buffered saline, 0.1% Tween (TBS-T), 5% nonfat dry milk] and incubated overnight at 4° C. with the following antibodies: anti-RAS mouse monoclonal (1:1000 in blocking buffer, Millipore Cat #: 05-516), anti-KRAS rabbit polyclonal (1:1000, Proteintech Group Inc., Cat #: 12063-1-AP) and anti-beta Actin mouse monoclonal (1:5000, Sigma Cat #: A5441) antibodies. Following three washes with TBS-T, the blot was incubated with horseradish peroxidase-conjugated secondary antibody and the signals visualized by enhanced chemiluminescence system as described by the manufacturer (GE Healthcare). To test fusion protein expression in multiple prostate derived cell lines, lysates from DU145, PrEC, RWPE, 22RV1, VCaP, PC3 either untreated or treated with 500 nM bortezomib for 12 hours were used. Bortezomib treated HEK cells over-expressing UBE2L3-KRAS fusion protein was used as a positive control. […] For ERK activation analysis NIH 3T3 cells were starved for 12 hours before immunoblot analysis using phospho erk1/2 antibody. All antibodies for the MAPK signaling proteins were purchased from Cell Signaling Technologies.
A general note: In western blotting, separated proteins are transferred to a membrane and probed.

On to `CC(C)C[C@H](NC(=O)[C@H](Cc1ccccc1)NC(=O)c1cnccn1)B(O)O` [bortezomib], for which the “levels of UBE2L3-KRAS protein expression” value (DU145 cells incubated with bortezomib) is reported as “enhanced”. The “expression of the UBE2L3-KRAS fusion protein” value reads like this: (HEK293 cells over-expressing UBE2L3-KRAS construct, in the presence of bortezomib) “clearly apparent”; (RWPE cells overexpressing UBE2L3-KRAS) “required”.
